Test results as given in ChEMBL document CHEMBL1130020, “Synthesis and characterization of technetium-99m-labeled tropanes as dopamine transporter-imaging agents” (J Med Chem, 1997).

Molecular target: Sodium-dependent dopamine transporter (Rattus norvegicus, UniProt P23977)
Assay: In vitro binding affinity to Dopamine transporter in rat striatal homogenates using [125I]IPT20 as the ligand

Sodium-dependent dopamine transporter, sequence (P23977 whole entry, looked up): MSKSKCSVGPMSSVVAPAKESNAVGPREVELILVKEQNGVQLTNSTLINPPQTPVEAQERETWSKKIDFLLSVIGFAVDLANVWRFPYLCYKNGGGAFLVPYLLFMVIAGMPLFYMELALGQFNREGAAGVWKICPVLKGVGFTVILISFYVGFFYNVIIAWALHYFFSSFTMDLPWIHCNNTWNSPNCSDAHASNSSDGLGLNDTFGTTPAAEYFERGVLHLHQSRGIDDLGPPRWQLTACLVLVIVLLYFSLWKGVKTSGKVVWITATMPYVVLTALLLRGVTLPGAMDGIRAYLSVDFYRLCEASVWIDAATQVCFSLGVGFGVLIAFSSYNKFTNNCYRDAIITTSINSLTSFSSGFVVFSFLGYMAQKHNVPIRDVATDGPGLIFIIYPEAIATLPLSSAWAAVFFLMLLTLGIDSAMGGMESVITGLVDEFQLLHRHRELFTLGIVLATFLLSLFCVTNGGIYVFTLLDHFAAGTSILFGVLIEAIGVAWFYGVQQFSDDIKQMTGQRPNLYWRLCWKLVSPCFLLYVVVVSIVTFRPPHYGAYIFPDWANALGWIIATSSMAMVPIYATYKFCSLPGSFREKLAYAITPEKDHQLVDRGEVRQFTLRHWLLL

## CN1C2CCC1[C@@H](CN(CCS)CCNCCS)[C@@H](c1ccc(Cl)cc1)C2 (stereo partly specified)
  Ki: 7 nM
